Legend:
Format in all cases: physicochemical
[1] = Chemical stability in aqueous state, 25° C., 4 weeks in complete darkness, HPLC; details: distilled water
Description: (§1) HPLC Analysis Conditions: • Detector: UV Absorbance (at 237 nm) • Column: Octadesyl silica gel C18 (4.6 mm×150 mm, 5 μm) • Mobile Phase: Potassium dihydrogenphosphate monobasic (0.03M): methanol=4:6 (v/v) • Flow Rate: 1.5 ml/min
The resulting aqueous solutions were stored at 25° C. for 4 weeks in complete darkness, after which a measurement was made of the contents of the salts with resort to HPLC under the same conditions as in the solid state.

[2] = Chemical stability in solid state, accelerated test at 60° C., HPLC content
Description: as §1

[3] = Test for hygroscopicity: water content (K. F. water %) at 25° C. under various humidity conditions; details: for water content (K. F. water %): 25° C.
physchem = details: 37 °C

Structure (SMILES) | stability in aqueous state (decomposition products, content change) [1] | change in content, accelerated test [2] | HPLC content ([2]; 1 week) [%] | HPLC content ([2]; 2 weeks) [%] | HPLC content ([2]; 3 weeks) [%] | HPLC content ([2]; initial) [%] | water content (K. F. water %) ([3]; 25% RH, 1 week storage) [%] | water content (K. F. water %) ([3]; 60% RH, 1 week storage) [%] | water content (K. F. water %) ([3]; 75% RH, 1 week storage) [%] | water content (K. F. water %) ([3]; 95% RH, 1 week storage) [%] | water content (K. F. water %) ([3]; Initial) [%] | solubility (physchem; pH 2, aqueous buffer) [mg/mL] | solubility (physchem; pH 4, aqueous buffer) [mg/mL] | solubility (physchem; pH 6, aqueous buffer) [mg/mL] | solubility (physchem; pH 7, aqueous buffer) [mg/mL] | solubility (physchem; pH 7.4, aqueous buffer) [mg/mL] | solubility (physchem; pH 8, aqueous buffer) [mg/mL] | solubility (physchem; water) [mg/mL] | hygroscopicity ([3]; relative humidity 95%) [%]
CCOC(=O)C1=C(COCCN)NC(C)=C(C(=O)OC)C1c1ccccc1Cl (stereo not drawn) [Besylate, amlodipine besylate, reference compound] | neither decomposition products nor content change is found | virtually no changes | 99.6 | 99.4 | 99.2 | 99.6 | 0.10 | 0.09 | 0.15 | 0.17 | 0.14 |  |  |  |  |  |  |  | 
CCOC(=O)C1=C(COCCN)NC(C)=C(C(=O)OC)C1c1ccccc1Cl.CCS(=O)(=O)O (stereo not drawn) [Ethanesulfonate, amlodipine ethanesulfonate] | neither decomposition products nor content change is found | virtually no changes | 99.6 | 99.6 | 99.5 | 99.7 | 0.08 | 0.09 | 0.13 | 0.15 | 0.12 | > 200 | > 200 | > 200 | > 200 | > 200 | > 200 | > 200 | ≤ 0.5

Source: patent US6903124B2, “Organic acid salt of amlodipine” (CJ Corp, priority 2002, dated 2005)
